Laboratory results reported in patent US20070049564A1 (Wyeth, priority 2005, published 2007).
Where two headings read alike, the source gives them in different places.

What was measured:
E. coli GC 4560 = test: MIC, broth microdilution; conditions: Escherichia coli
E. coli GC 2235 = test: MIC, broth microdilution; conditions: Escherichia coli
S. aureus GC 4536 = test: MIC, broth microdilution; conditions: Staphylococcus aureus
E. coli GC 1073 = test: MIC, broth microdilution; conditions: Escherichia coli
E. coli GC 6465 = test: MIC, broth microdilution; conditions: Escherichia coli
S. aureus GC 6466 = test: MIC, broth microdilution; conditions: Staphylococcus aureus
S. typhimurium GC 2172 = test: MIC, broth microdilution; conditions: Salmonella enterica, TYPHIMURIUM
E. faecalis GC 2242 = test: MIC, broth microdilution; conditions: Enterococcus faecalis
E. coli GC 2231 = test: MIC, broth microdilution; conditions: Escherichia coli
S. aureus GC 6469 = test: MIC, broth microdilution; conditions: Staphylococcus aureus
E. coli GC 2270 = test: MIC, broth microdilution; conditions: Escherichia coli
S. aureus GC 6467 = test: MIC, broth microdilution; conditions: Staphylococcus aureus
Method: (§1) Antimicrobial susceptibility testing. The in vitro activities of the antibiotics are determined by the broth microdilution method as recommended by the National Committee for Clinical Laboratory Standards (NCCLS) (1). Mueller-Hinton II broth (MHBII)(BBL Cockeysville, Md.) is the medium employed in the testing procedures. Microtiter plates containing serial dilutions of each antimicrobial agent are inoculated with each organism to yield the appropriate density (10^5 CFU/ml) in a 100 μl final volume. The plates are incubated for 18-22 hours at 35° C. in ambient air.
Representative compounds were first incubated in mouse serum for an hour prior to the in vitro testing against a panel of selected gram-positive and gram-negative bacteria strains. All compounds were also pre-incubated in water for an hour prior to testing as control.

E. faecium GC 2243 = test: MIC, broth microdilution; conditions: Enterococcus faecium
E. faecium GC 4556 = test: MIC, broth microdilution; conditions: Enterococcus faecium
Method: as §1
Representative compounds were first incubated in mouse serum for an hour prior to the in vitro testing against a panel of selected gram-positive and gram-negative bacteria strains. All compounds were also pre-incubated in water for an hour prior to testing as control. Representative compounds of Formula I were incubated in human serum prior to MIC determination.

S. aureus GC 1079 = test: MIC, broth microdilution; conditions: Staphylococcus aureus
S. aureus GC 2216 = test: MIC, broth microdilution; conditions: Staphylococcus aureus
Staph. = test: Range of MIC for Staph. strains, including MRSA; conditions: Staphylococcus aureus
c. albicans GC 3066 = test: MIC, broth microdilution
E. coli = test: Range of MIC for E. coli strains; conditions: Escherichia coli
E. coli GC 2233 = test: MIC, broth microdilution; conditions: Escherichia coli

CC(C)C(=O)OCOC(=O)N(CC(=O)Nc1cc(N(C)C)c2c(c1O)C(=O)C1=C(O)[C@]3(O)C(=O)C(C(N)=O)=C(O)[C@@H](N(C)C)[C@@H]3C[C@@H]1C2)C(C)(C)C [Example 45, ({[(2-{[(5aR,6aS,7S,10aS)-9-(aminocarbonyl)-4,7-bis(dimethylamino)-1,8,10a,11-tetrahydroxy-10,12-dioxo-5,5a,6,6a,7,10,10a,12-octahydrotetracen-2-yl]amino}-2-oxoethyl)(tert-butyl)amino]carbonyl}oxy)methyl 2-methylpropanoate]
0.5 to 2 µg/mL: MIC (Staph.; MRSA, read-out: Range of MIC, Staph (Water)) | MIC (Staph.; read-out: Minimum inhibitory concentration (MIC), Staph (Water)) | MIC (E. coli; 20 h, read-out: Range of MIC, E. coli (Mouse Serum))
16 µg/mL: MIC (E. coli GC 2235; GC2235, read-out: MINIMAL INHIBITORY CONCENTRATION MIC, pre-incubated in Water) | MIC (E. coli GC 6465; GC6465, read-out: MINIMAL INHIBITORY CONCENTRATION MIC, pre-incubated in Human Serum) | MIC (E. coli GC 2233; GC2233, read-out: MINIMAL INHIBITORY CONCENTRATION MIC, pre-incubated in Water)
4 µg/mL: MIC (E. coli GC 2235; GC2235, read-out: MINIMAL INHIBITORY CONCENTRATION MIC, pre-incubated in Human Serum) | MIC (E. coli GC 2231; GC2231, read-out: MINIMAL INHIBITORY CONCENTRATION MIC, pre-incubated in Human Serum) | MIC (E. coli GC 2270; GC2270, read-out: MINIMAL INHIBITORY CONCENTRATION MIC, pre-incubated in Human Serum) | MIC (E. coli GC 2233; GC2233, read-out: MINIMAL INHIBITORY CONCENTRATION MIC, pre-incubated in Human Serum)
8 µg/mL: MIC (E. coli GC 1073; GC1073, read-out: MINIMAL INHIBITORY CONCENTRATION MIC, pre-incubated in Human Serum)
> 64 µg/mL: MIC (E. coli GC 6465; GC6465, read-out: MINIMAL INHIBITORY CONCENTRATION MIC, pre-incubated in Water) | MIC (S. typhimurium GC 2172; read-out: MINIMAL INHIBITORY CONCENTRATION MIC, pre-incubated in Water) | MIC (c. albicans GC 3066; Candida albicans, GC3066, read-out: MINIMAL INHIBITORY CONCENTRATION MIC)
0.12 µg/mL: MIC (S. aureus GC 1079; GC1079, read-out: MINIMAL INHIBITORY CONCENTRATION MIC, pre-incubated in Human Serum)
0.25 µg/mL: MIC (E. coli GC 4560; GC4560, read-out: MINIMAL INHIBITORY CONCENTRATION MIC, pre-incubated in Mouse Serum) | MIC (S. aureus GC 6466; GC6466, read-out: MINIMAL INHIBITORY CONCENTRATION MIC, pre-incubated in Human Serum) | MIC (S. aureus GC 6466; GC6466, read-out: MINIMAL INHIBITORY CONCENTRATION MIC, pre-incubated in Mouse Serum)
1 µg/mL: MIC (S. aureus GC 4536; GC4536, read-out: MINIMAL INHIBITORY CONCENTRATION MIC, pre-incubated in Water) | MIC (E. coli GC 1073; GC1073, read-out: MINIMAL INHIBITORY CONCENTRATION MIC, pre-incubated in Mouse Serum) | MIC (E. faecalis GC 2242; GC2242, read-out: MINIMAL INHIBITORY CONCENTRATION MIC, pre-incubated in Human Serum) | MIC (E. faecalis GC 2242; GC2242, read-out: MINIMAL INHIBITORY CONCENTRATION MIC, pre-incubated in Mouse Serum) | MIC (E. coli GC 2231; GC2231, read-out: MINIMAL INHIBITORY CONCENTRATION MIC, pre-incubated in Mouse Serum) | MIC (S. aureus GC 6469; GC6469, read-out: MINIMAL INHIBITORY CONCENTRATION MIC, pre-incubated in Mouse Serum) | MIC (S. aureus GC 6469; GC6469, read-out: MINIMAL INHIBITORY CONCENTRATION MIC, pre-incubated in Water) | MIC (S. aureus GC 6467; GC6467, read-out: MINIMAL INHIBITORY CONCENTRATION MIC, pre-incubated in Human Serum) | MIC (S. aureus GC 6467; GC6467, read-out: MINIMAL INHIBITORY CONCENTRATION MIC, pre-incubated in Mouse Serum) | MIC (E. faecium GC 2243; GC2243, read-out: MINIMAL INHIBITORY CONCENTRATION MIC, pre-incubated in Human Serum) | MIC (E. faecium GC 4556; GC4556, read-out: MINIMAL INHIBITORY CONCENTRATION MIC, pre-incubated in Human Serum) | MIC (E. faecium GC 4556; GC4556, read-out: MINIMAL INHIBITORY CONCENTRATION MIC, pre-incubated in Mouse Serum) | MIC (S. aureus GC 1079; GC1079, read-out: MINIMAL INHIBITORY CONCENTRATION MIC, pre-incubated in Water) | MIC (S. aureus GC 2216; GC2216, read-out: MINIMAL INHIBITORY CONCENTRATION MIC, pre-incubated in Mouse Serum) | MIC (S. aureus GC 2216; GC2216, read-out: MINIMAL INHIBITORY CONCENTRATION MIC, pre-incubated in Water) | MIC (E. coli GC 2233; GC2233, read-out: MINIMAL INHIBITORY CONCENTRATION MIC, pre-incubated in Mouse Serum)
0.25 to 1 µg/mL: MIC (Staph.; MRSA, read-out: Range of MIC, Staph (Mouse Serum))
0.5 µg/mL: MIC (E. coli GC 4560; GC4560, read-out: MINIMAL INHIBITORY CONCENTRATION MIC, pre-incubated in Human Serum) | MIC (E. coli GC 2235; GC2235, read-out: MINIMAL INHIBITORY CONCENTRATION MIC, pre-incubated in Mouse Serum) | MIC (S. aureus GC 4536; GC4536, read-out: MINIMAL INHIBITORY CONCENTRATION MIC, pre-incubated in Human Serum) | MIC (S. aureus GC 4536; GC4536, read-out: MINIMAL INHIBITORY CONCENTRATION MIC, pre-incubated in Mouse Serum) | MIC (S. aureus GC 6466; GC6466, read-out: MINIMAL INHIBITORY CONCENTRATION MIC, pre-incubated in Water) | MIC (S. aureus GC 6469; GC6469, read-out: MINIMAL INHIBITORY CONCENTRATION MIC, pre-incubated in Human Serum) | MIC (E. coli GC 2270; GC2270, read-out: MINIMAL INHIBITORY CONCENTRATION MIC, pre-incubated in Mouse Serum) | MIC (E. faecium GC 2243; GC2243, read-out: MINIMAL INHIBITORY CONCENTRATION MIC, pre-incubated in Mouse Serum) | MIC (S. aureus GC 1079; GC1079, read-out: MINIMAL INHIBITORY CONCENTRATION MIC, pre-incubated in Mouse Serum) | MIC (S. aureus GC 2216; GC2216, read-out: MINIMAL INHIBITORY CONCENTRATION MIC, pre-incubated in Human Serum)
4 to 16 µg/mL: MIC (E. coli; read-out: Minimum inhibitory concentration (MIC), E. coli (Human Serum))
>64 UG/ML: MINIMAL INHIBITORY CONCENTRATION MIC (c. albicans GC 3066; pre-incubated in Human Serum) | MINIMAL INHIBITORY CONCENTRATION MIC (c. albicans GC 3066; pre-incubated in Mouse Serum)
2 µg/mL: MIC (E. coli GC 4560; GC4560, read-out: MINIMAL INHIBITORY CONCENTRATION MIC, pre-incubated in Water) | MIC (E. coli GC 6465; GC6465, read-out: MINIMAL INHIBITORY CONCENTRATION MIC, pre-incubated in Mouse Serum) | MIC (S. typhimurium GC 2172; read-out: MINIMAL INHIBITORY CONCENTRATION MIC, pre-incubated in Mouse Serum) | MIC (E. faecalis GC 2242; GC2242, read-out: MINIMAL INHIBITORY CONCENTRATION MIC, pre-incubated in Water) | MIC (S. aureus GC 6467; GC6467, read-out: MINIMAL INHIBITORY CONCENTRATION MIC, pre-incubated in Water) | MIC (E. faecium GC 2243; GC2243, read-out: MINIMAL INHIBITORY CONCENTRATION MIC, pre-incubated in Water) | MIC (E. faecium GC 4556; GC4556, read-out: MINIMAL INHIBITORY CONCENTRATION MIC, pre-incubated in Water)
64 µg/mL: MIC (E. coli GC 1073; GC1073, read-out: MINIMAL INHIBITORY CONCENTRATION MIC, pre-incubated in Water)
0.12 to 1 µg/mL: MIC (Staph.; read-out: Minimum inhibitory concentration (MIC), Staph (Human Serum))
32 µg/mL: MIC (S. typhimurium GC 2172; read-out: MINIMAL INHIBITORY CONCENTRATION MIC, pre-incubated in Human Serum) | MIC (E. coli GC 2231; GC2231, read-out: MINIMAL INHIBITORY CONCENTRATION MIC, pre-incubated in Water) | MIC (E. coli GC 2270; GC2270, read-out: MINIMAL INHIBITORY CONCENTRATION MIC, pre-incubated in Water)
